Patent US20260015358A1, “BICYCLIC DERIVATIVES, COMPOSITIONS AND USES THEREOF” (Danatlas Pharmaceuticals Co., Ltd., priority 2023, published 2026)

Legend:
[1] = target: T1, WRN [UniPro: Q14191 (WRN_HUMAN), N500-C946] (Homo sapiens (Human), UniProt Q14191); test: WRN ATPase assay (ADP-Glo); type: biochemical; settings: WRN enzymatic activity assay
[2] = target: T1, WRN [UniPro: Q14191 (WRN_HUMAN), N500-C946]; test: WRN unwinding assay (FORKF DNA, fluorescence); type: biochemical; settings: Table 14

T1 sequence (Q14191 500-946): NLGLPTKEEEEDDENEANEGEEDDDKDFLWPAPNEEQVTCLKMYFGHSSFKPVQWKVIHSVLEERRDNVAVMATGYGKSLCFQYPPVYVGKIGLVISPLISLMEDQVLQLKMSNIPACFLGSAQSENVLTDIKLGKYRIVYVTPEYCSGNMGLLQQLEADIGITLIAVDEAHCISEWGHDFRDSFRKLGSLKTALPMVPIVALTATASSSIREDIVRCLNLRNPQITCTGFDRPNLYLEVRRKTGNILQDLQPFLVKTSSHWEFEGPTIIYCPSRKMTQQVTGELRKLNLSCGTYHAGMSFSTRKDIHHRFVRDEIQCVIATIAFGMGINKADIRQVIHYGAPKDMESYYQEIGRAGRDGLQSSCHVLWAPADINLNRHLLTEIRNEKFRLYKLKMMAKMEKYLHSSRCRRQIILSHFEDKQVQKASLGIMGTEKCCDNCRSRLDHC

Row | Compound | IC50 [1] [nM] | IC50 [2] [nM]
1 | CCc1c(N2CCN(C(=O)c3cnc4[nH]cnc4c3O)CC2)c(=O)n2nc(C3=CCOCC3)nc2n1CC(=O)Nc1ccc(C(F)(F)F)cc1Cl [Example 57, N-(2-Chloro-4-(trifluoromethyl)phenyl)-2-(2-(3,6-dihydro-2H-pyran-4-yl)-5-ethyl-6-(4-(7-hydroxy-3H-imidazo[4,5-b]pyridine-6-carbonyl)piperazin-1-yl)-7-oxo-[1,2,4]triazolo[1,5-a]pyrimidin-4(7H)-yl)acetamide] | < 100 | < 100
2 | CCc1c(N2CCN(C(=O)CNC(=O)Nc3nccs3)CC2)c(=O)n2nc(C3=CCOCC3)nc2n1CC(=O)Nc1ccc(C(F)(F)F)cc1Cl [Example 188, N-(2-Chloro-4-(trifluoromethyl)phenyl)-2-(2-(3,6-dihydro-2H-pyran-4-yl)-5-ethyl-7-oxo-6-(4-((thiazol-2-ylcarbamoyl)glycyl)piperazin-1-yl)-[1,2,4]triazolo[1,5-a]pyrimidin-4(7H)-yl)acetamide] | < 100 | < 100
3 | CCc1c(N2CCN(C(=O)c3c(O)cc(C)oc3=O)CC2)c(=O)n2nc(C3=CCOCC3)nc2n1CC(=O)Nc1ccc(C(F)(F)F)cc1Cl [Example 4, N-(2-Chloro-4-(trifluoromethyl)phenyl)-2-(2-(3,6-dihydro-2H-pyran-4-yl)-5-ethyl-6-(4-(4-hydroxy-6-methyl-2-oxo-2H-pyran-3-carbonyl)piperazin-1-yl)-7-oxo-[1,2,4]triazolo[1,5-a]pyrimidin-4(7H)-yl)acetamide] | < 100 | < 100
4 | CCc1c(N2CCN(C(=O)CNC(=O)c3ccccc3F)CC2)c(=O)n2nc(C3=CCOCC3)nc2n1CC(=O)Nc1cc(C)cs1 [Example 154, N-(2-(4-(2-(3,6-Dihydro-2H-pyran-4-yl)-5-ethyl-4-(2-((4-methylthiophen-2-yl)amino)-2-oxoethyl)-7-oxo-4,7-dihydro-[1,2,4]triazolo[1,5-a]pyrimidin-6-yl)piperazin-1-yl)-2-oxoethyl)-2-fluorobenzamide] | < 100 | < 100
5 | CCc1c(N2CCN(C(=O)c3cn(C)[nH]c3=O)CC2)c(=O)n2nc(C3=CCOCC3)nc2n1CC(=O)Nc1ccc(C(F)(F)F)cc1Cl [Example 64, N-(2-Chloro-4-(trifluoromethyl)phenyl)-2-(2-(3,6-dihydro-2H-pyran-4-yl)-5-ethyl-6-(4-(1-methyl-3-oxo-2,3-dihydro-1H-pyrazole-4-carbonyl)piperazin-1-yl)-7-oxo-[1,2,4]triazolo[1,5-a]pyrimidin-4(7H)-yl)acetamide] | 100 to 1000 | < 100
6 | CCc1c(N2CCN(C(=O)CNC(=O)c3cccnc3O)CC2)c(=O)n2nc(C3=CCOCC3)nc2n1CC(=O)Nc1ccc(C(F)(F)F)cc1Cl [Example 282, N-(2-(4-(4-(2-((2-Chloro-4-(trifluoromethyl)phenyl)amino)-2-oxoethyl)-2-(3,6-dihydro-2H-pyran-4-yl)-5-ethyl-7-oxo-4,7-dihydro-[1,2,4]triazolo[1,5-a]pyrimidin-6-yl)piperazin-1-yl)-2-oxoethyl)-2-hydroxynicotinamide] | < 100 | < 100
7 | CCc1c(N2CCN(C(=O)CNC(=O)c3ccccc3F)CC2)c(=O)n2nc(N3Cc4ccncc4C3)nc2n1CC(=O)Nc1ccc(C(F)(F)F)cc1Cl [Example 246, N-(2-(4-(4-(2-((2-Chloro-4-(trifluoromethyl)phenyl)amino)-2-oxoethyl)-2-(1,3-dihydro-2H-pyrrolo[3,4-c]pyridin-2-yl)-5-ethyl-7-oxo-4,7-dihydro-[1,2,4]triazolo[1,5-a]pyrimidin-6-yl)piperazin-1-yl)-2-oxoethyl)-2-fluorobenzamide] | 100 to 1000 | < 100
8 | CCc1c(N2CCN(C(=O)CNC(=O)c3cccc(NC)c3F)CC2)c(=O)n2nc(C3=CCOCC3)nc2n1CC(=O)Nc1ccc(C(F)(F)F)cc1Cl [Example 287, N-(2-(4-(4-(2-((2-Chloro-4-(trifluoromethyl)phenyl)amino)-2-oxoethyl)-2-(3,6-dihydro-2H-pyran-4-yl)-5-ethyl-7-oxo-4,7-dihydro-[1,2,4]triazolo[1,5-a]pyrimidin-6-yl)piperazin-1-yl)-2-oxoethyl)-2-fluoro-3-(methylamino)benzamide] | < 100 | < 100
9 | CCc1c(N2CCN(C(=O)CNC(=O)c3c[nH][nH]c3=O)CC2)c(=O)n2nc(C3=CCOCC3)nc2n1CC(=O)Nc1ccc(C(F)(F)F)cc1Cl [Example 108, N-(2-(4-(4-(2-((2-Chloro-4-(trifluoromethyl)phenyl)amino)-2-oxoethyl)-2-(3,6-dihydro-2H-pyran-4-yl)-5-ethyl-7-oxo-4,7-dihydro-[1,2,4]triazolo[1,5-a]pyrimidin-6-yl)piperazin-1-yl)-2-oxoethyl)-3-oxo-2,3-dihydro-1H-pyrazole-4-carboxamide] | < 100 | < 100
10 | CCc1c(N2CCN(C(=O)CNC(=O)c3cccc(NC)c3)CC2)c(=O)n2nc(C3=CCOCC3)nc2n1CC(=O)Nc1ccc(C(F)(F)F)cc1Cl [Example 277, N-(2-(4-(4-(2-((2-Chloro-4-(trifluoromethyl)phenyl)amino)-2-oxoethyl)-2-(3,6-dihydro-2H-pyran-4-yl)-5-ethyl-7-oxo-4,7-dihydro-[1,2,4]triazolo[1,5-a]pyrimidin-6-yl)piperazin-1-yl)-2-oxoethyl)-3-(methylamino)benzamide] | < 100 | < 100
11 | CCc1c(N2CCN(C(=O)c3c[nH]c(=O)n(C)c3=O)CC2)c(=O)n2nc(C3=CCOCC3)nc2n1CC(=O)Nc1ccc(C(F)(F)F)cc1Cl [Example 43, N-(2-Chloro-4-(trifluoromethyl)phenyl)-2-(2-(3,6-dihydro-2H-pyran-4-yl)-5-ethyl-6-(4-(3-methyl-2,4-dioxo-1,2,3,4-tetrahydropyrimidine-5-carbonyl)piperazin-1-yl)-7-oxo-[1,2,4]triazolo[1,5-a]pyrimidin-4(7H)-yl)acetamide] | 100 to 1000 | < 100
12 | CCc1c(N2CCN(C(=O)CNC(=O)c3cccc(NC(C)=O)c3)CC2)c(=O)n2nc(C3=CCOCC3)nc2n1CC(=O)Nc1ccc(C(F)(F)F)cc1Cl [Example 278, 3-Acetamido-N-(2-(4-(4-(2-((2-chloro-4-(trifluoromethyl)phenyl)amino)-2-oxoethyl)-2-(3,6-dihydro-2H-pyran-4-yl)-5-ethyl-7-oxo-4,7-dihydro-[1,2,4]triazolo[1,5-a]pyrimidin-6-yl)piperazin-1-yl)-2-oxoethyl)benzamide] | < 100 | < 100

Further lines, results first:

Row | IC50 [1] [nM] | IC50 [2] [nM] | Compound
13 | < 100 | < 100 | CCc1c(N2CCN(C(=O)c3cnn4ccc(C)c4c3O)CC2)c(=O)n2nc(C3=CCOCC3)nc2n1CC(=O)Nc1ccc(C(F)(F)F)cc1Cl [Example 303, N-(2-Chloro-4-(trifluoromethyl)phenyl)-2-(2-(3,6-dihydro-2H-pyran-4-yl)-5-ethyl-6-(4-(4-hydroxy-5-methylpyrrolo[1,2-b]pyridazine-3-carbonyl)piperazin-1-yl)-7-oxo-[1,2,4]triazolo[1,5-a]pyrimidin-4(7H)-yl)acetamide]
14 | 100 to 1000 | < 100 | CCc1c(N2CCN(C(=O)CNC(=O)c3ncc(C)s3)CC2)c(=O)n2nc(C3=CCOCC3)nc2n1CC(=O)Nc1ccc(C(F)(F)F)cc1Cl [Example 128, N-(2-(4-(4-(2-((2-Chloro-4-(trifluoromethyl)phenyl)amino)-2-oxoethyl)-2-(3,6-dihydro-2H-pyran-4-yl)-5-ethyl-7-oxo-4,7-dihydro-[1,2,4]triazolo[1,5-a]pyrimidin-6-yl)piperazin-1-yl)-2-oxoethyl)-5-methylthiazole-2-carboxamide]
15 | < 100 | < 100 | CCc1c(N2CCN(C(=O)c3ccn4nc(C)cc4c3O)CC2)c(=O)n2nc(C3=CCOCC3)nc2n1CC(=O)Nc1ccc(C(F)(F)F)cc1Cl [Example 72, N-(2-Chloro-4-(trifluoromethyl)phenyl)-2-(2-(3,6-dihydro-2H-pyran-4-yl)-5-ethyl-6-(4-(4-hydroxy-2-methylpyrazolo[1,5-a]pyridine-5-carbonyl)piperazin-1-yl)-7-oxo-[1,2,4]triazolo[1,5-a]pyrimidin-4(7H)-yl)acetamide]
16 | < 100 | < 100 | CCc1c(N2CCN(C(=O)CNC(=O)c3ccc(OC)cc3)CC2)c(=O)n2nc(C3=CCOCC3)nc2n1CC(=O)Nc1ccc(C(F)(F)F)cc1Cl [Example 119, N-(2-(4-(4-(2-((2-Chloro-4-(trifluoromethyl)phenyl)amino)-2-oxoethyl)-2-(3,6-dihydro-2H-pyran-4-yl)-5-ethyl-7-oxo-4,7-dihydro-[1,2,4]triazolo[1,5-a]pyrimidin-6-yl)piperazin-1-yl)-2-oxoethyl)-4-methoxybenzamide]
17 | 100 to 1000 | 100 to 1000 | CCc1c(N2CCN(C(=O)CNC(=O)c3cc(N(C)C)ccc3F)CC2)c(=O)n2nc(C3=CCOCC3)nc2n1CC(=O)Nc1ccc(C(F)(F)F)cc1Cl [Example 212, N-(2-(4-(4-(2-((2-Chloro-4-(trifluoromethyl)phenyl)amino)-2-oxoethyl)-2-(3,6-dihydro-2H-pyran-4-yl)-5-ethyl-7-oxo-4,7-dihydro-[1,2,4]triazolo[1,5-a]pyrimidin-6-yl)piperazin-1-yl)-2-oxoethyl)-5-(dimethylamino)-2-fluorobenzamide]
18 | < 100 | < 100 | CCc1c(N2CCN(C(=O)CNC(=O)c3cccnc3)CC2)c(=O)n2nc(C3=CCOCC3)nc2n1CC(=O)Nc1ccc(C(F)(F)F)cc1Cl [Example 110, N-(2-(4-(4-(2-((2-Chloro-4-(trifluoromethyl)phenyl)amino)-2-oxoethyl)-2-(3,6-dihydro-2H-pyran-4-yl)-5-ethyl-7-oxo-4,7-dihydro-[1,2,4]triazolo[1,5-a]pyrimidin-6-yl)piperazin-1-yl)-2-oxoethyl)nicotinamide]
19 | 100 to 1000 | < 100 | CCc1c(N2CCN(C(=O)c3ncsc3N)CC2)c(=O)n2nc(C3=CCOCC3)nc2n1CC(=O)Nc1ccc(C(F)(F)F)cc1Cl [Example 32, 2-(6-(4-(5-Aminothiazole-4-carbonyl)piperazin-1-yl)-2-(3,6-dihydro-2H-pyran-4-yl)-5-ethyl-7-oxo-[1,2,4]triazolo[1,5-a]pyrimidin-4(7H)-yl)-N-(2-chloro-4-(trifluoromethyl)phenyl)acetamide]
